The record followed here is ChEMBL document CHEMBL3112402, “Chemical constituents of Plectranthus amboinicus and the synthetic analogs possessing anti-inflammatory activity” (Bioorg Med Chem, 2014).

Structures are written as SMILES.

Tested on in the first assay: not listed separately
In words: Antiinflammatory activity in PMA-activated human U937 cells assessed as inhibition of LPS-induced TNF-alpha expression preincubated for 2 hrs followed by LPS challenge measured after 6 hrs by ELISA. The class given is functional, cell-based. As to conditions: U-937. A general note: In an ELISA, binding on a coated surface is turned into a signal by an enzyme label.
The term IC50 denotes the point on the concentration scale where inhibition reaches its midpoint. For the molecule `C/C=C1\C(=O)C=C(C(C)C)C1=O`, the IC50 is 23.7 µM.
`CC1=CC(=O)/C(=C\C(C)C)C1=O`: the IC50 stood at 10.1 µM.
Still for that read-out and setting: the result for `CC(C)C=C1C(=O)C=CC1=O` reads 5.1 µM.
Turning to `CC1=CC(=O)C(C(C)C)=CC1=O` [THYMOQUINONE], the half-maximal inhibitory concentration (IC50) came out at 102 µM.

The target in the next assay is Transcription factor Jun (Homo sapiens, UniProt P05412). In words: Inhibition of transcription factor AP-1 binding to oligonucleotide containing TPA-responsive element in TPA-activated human HeLa cells after 1 hr by ELISA. The class given is cell-based.
Sequence of Transcription factor Jun (P05412 whole entry): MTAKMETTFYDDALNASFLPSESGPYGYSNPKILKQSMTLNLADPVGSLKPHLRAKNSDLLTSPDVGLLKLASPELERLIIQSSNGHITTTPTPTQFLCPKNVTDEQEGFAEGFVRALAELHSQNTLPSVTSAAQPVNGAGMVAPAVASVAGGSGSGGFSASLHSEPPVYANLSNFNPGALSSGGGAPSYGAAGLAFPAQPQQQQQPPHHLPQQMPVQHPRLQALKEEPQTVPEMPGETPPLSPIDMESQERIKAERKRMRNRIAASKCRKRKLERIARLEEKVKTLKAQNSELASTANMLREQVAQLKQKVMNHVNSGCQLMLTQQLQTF
Conditions: not given
`O=C(O)/C(=C\c1ccc(O)c(O)c1)C(c1ccc(O)c(O)c1)C(O)C(=O)O` (stereo not drawn) registered a half-maximal inhibitory concentration (IC50) of 11.9 µM.
`O=C(O[C@H](Cc1ccc(O)c(O)c1)C(=O)O)[C@H]1[C@H](C(=O)O[C@H](Cc2ccc(O)c(O)c2)C(=O)O)[C@H](c2ccc(O)c(O)c2)[C@H]1c1ccc(O)c(O)c1` showed an IC50 of 1.3 µM.
In the case of `O=C(O[C@H](Cc1ccc(O)c(O)c1)C(=O)O)C1=Cc2ccc(O)c(O)c2C(C(=O)O[C@H](Cc2ccc(O)c(O)c2)C(=O)O)C1c1ccc(O)c(O)c1` (stereo partly drawn), the IC50 came to 1.6 µM.
As for `O=C(/C=C/c1ccc(O)c(O)c1)O[C@H](Cc1ccc(O)c(O)c1)C(=O)O` [ROSMARINIC ACID], the IC50 was 16.2 µM.
